In patent US12377069B2, “Compounds, compositions, methods of using, and methods for preparing compounds” (UNIVERSITY OF LOUISVILLE RESEARCH FOUNDATION, INC., priority 2018, dated 2025):
Blank lines part the entries; values can stand above or below the compound they belong to.

Legend:
[1] = test system: colon cancer cell line (SW480); assay: Proliferation assay with 5FU; conditions: Homo sapiens
Cyp1A1 [2] = assay: Cyp1A1 enzyme activity in colon and liver microsomes of treated mice; format: in vivo, mouse; conditions: 1 week; for Cyp1A1 activity in liver compared to oral UroA/UAS03: i.p. daily
Protocol: Measurements of Cyp1A1 enzyme activity (Ex vivo): Mice were treated with Vehicle or UroA or UAS03, BNF or FICZ daily for one week at indicated concentration either through oral or i.p. route. After one week, mice were euthanized and the colon and liver tissues were dissected. Microsomes from these tissues were prepared using the following procedure (SINGH et al., (2013) “Evaluation of memory enhancing clinically available standardized extract of Bacopa monniera on P-glycoprotein and cytochrome P450 3A in Sprague-Dawley rats” PloS one, Vol. 8, Article e72517). For hepatic microsomes, liver was first perfused with 0.9% sodium chloride solution and excised out. Adhering blood and saline was removed by blotting on tissue paper and tissue was homogenized in tissue homogenization buffer (50 mM Tris-HCl, pH 7.4 with 250 mM sucrose). Homogenate was centrifuged at 10,000×g for 30 minutes at 4° C. supernatant obtained was further centrifuged at 105,000×g for 60 minutes at 4° C. The pellet was washed with homogenization buffer and centrifuged again at 105,000×g for 60 minutes at 4° C. The pellet was suspended in homogenization buffer and used for protein and CYP assay. For intestinal microsome preparation, intestine was removed and washed with 0.9% sodium chloride. The intestine was longitudinally cut open to expose mucosal layer and mucosa was scrapped with help of glass slide. The scraped tissue was collected in homogenization buffer (50 mM Tris-HCl buffer containing glycerol (20% v/v), protease inhibitor (1%) and heparin (3 U/ml)). This suspended mucosa was homogenized and centrifuged at 10,000×g for 20 minutes at 4° C. Supernatant obtained was further centrifuged at 105,000×g for 60 minutes at 4° C. The pellet was washed with buffer and centrifuged again at 105,000×g for 60 minutes at 4° C. The pellet was suspended homogenization buffer and used for protein and CYP enzymes assays.
Ethoxyresorufin-O-deethylase (EROD) assay: The microsomal proteins (0.5 mg) were mixed with 200 μL Tris buffer (0.1 M, pH 7.4) containing ethoxyresorufin (0.01 mM). To start reaction, NADPH (0.1 mM) was added and incubated at 37° C. for 10 min. After 10 min, reaction was terminated by adding equal volume of acetonitrile and reaction mixture was centrifuged at 13000×g for 10 min at 4° C. Supernatant was used to determine resorufin by measuring fluorescence (Ex. 530 nm, Em. 580 nm). Pure resorufin (Sigma Aldrich) was used to generate standard curve.
P450-Glo Cyp1A1 luminiscence assay: The above microsomes (20 μg) were used for P450-Glo Cyp1A1 luminiscence assays as per manufacturer's instructions.

Cyp1A1 [3] = assay: Cyp1A1 expression and enzyme activity in vitro (P450-Glo, EROD); format: cell-based, human; conditions: HT29, 24 h; P450-Glo and EROD
Protocol: Measurment of Cyp1A1 enzyme activities in vitro. EROD assay: HT-29 cells (15,000 cells/well) treated with vehicle, UroA and UAS03 (24 hrs), were rinsed with HBSS buffer, and then fresh HBSS buffer was added along with 5 μM of 7-ethoxyresorufin. Cells were further incubated at 37° C. for 1 h. After the incubation time, fluorescence (Exc. 530 nm, Em. 580 nm) was measured and product (resorufin) formed was calculated from calibration standard and normalized with protein concentration.
P450-Glo Cyp1A1 luminiscence assay: HT29 cells (25,000 cells/well) were plated in 48 well plate. Cell were then treated with UroA (0.1, 1, 10, 25 and 50 μM) or UAS03 (0.1, 1, 10, 25 and 50 μM) or FICZ (0.1, 1, 10, 25 and 50 nM) for 24 hrs. After treatment, cells were washed to remove any residual drugs, and fresh medium containing Cyp1A1 substrate (as per protocol provided with kit Cat. #V8751; Promega) for 3 hr. After incubation, 25 μl of culture medium was removed from each well and transferred to a 96-well white opaque plate and 25 μl of luciferin detection reagent was added to initiate the luminescence reaction and plate was incubated at room temperature for 20 min. After incubation, luminescence was recorded in luminometer. The data reported as fold change over vehicle treatment.

[4] = test system: mouse bone marrow derived macrophages (BMDMs); assay: LPS-induced IL-6 and TNF-α in BMDM; format: cell-based; conditions: LPS 50 ng/mL, six hours; compared UroA
Protocol: Measurements of IL-6 and TNF-α in BMDM: BMDM were plated in 96 (10,000 cells/well) and 12 wells (0.1×10^6 cells/well) plate for ELISA and RNA isolation. To evaluate the anti-inflammatory properties, BMDMs were stimulated with E. coli-derived lipopolysaccharides (LPS; 055:B5; Sigma) at 50 ng/mL concentration for six hours alone or in combination with UroA or UAS03 at indicated concentrations (0.01, 0.1, 1, 10, 25, 50 μM) in quadruplicates. For cytokine production via ELISA, the supernatant was collected and centrifuged at 10,000×g for 10 min at 4° C. to pellet down any cell and cytokines were quantified using IL-6 and TNF-α specific ELISA kit (Biolegend) following manufacturer's instruction.
Screening for anti-inflammatory activities: Mouse bone marrow derived macrophages (BMDM) were plated in 96 wells plate for ELISA. To evaluate the anti-inflammatory properties, BMDMs were stimulated with E. coli-derived lipopolysaccharides (LPS; 055:B5; Sigma) at 50 ng/mL concentration for six hours alone or in combination with compounds at indicated concentrations in quadruplicates. For cytokine production via ELISA, the supernatant was collected and centrifuged at 12,000 rpm for 10 min at 4° C. to pellet down any cell and cytokines were quantified using IL-6 and TNF-α specific ELISA kit (Biolegend) following manufacturer's instruction. LPS induced IL-6 or TNF-α considered as 100%.

AhR = AhR reporter (XRE-luciferase) assay; format: cell-based, human; conditions: 6 h, over vehicle
Protocol: AhR Reporter assay: AhR-reported assay was performed using AhR Reporter Assay system (Indio Biosciences). The AhR Reporter cells (expressing luciferase under AhR promoter) as well as positive control MeBio (AhR ligand) compound were provided in the kit. The cells were treated with Vehicle or UroA or UAS03 or ellagic acid or MeBio for 6 hr and luminoscence was measured according to manufacture's instructions.

[5] = SW480, read-out: cell viability
[6] = i.p., UroA/UAS03 5 mg/kg/day, FICZ 1 μg/mouse/day

Compound: O=c1[nH]cc(F)c(=O)[nH]1 [5FU, 5-Fluoro-1H,3H-pyrimidine-2,4-dione, reference compound]
viability at 3.12 µM [1, 5]: 90% | viability at 25 µM [1, 5]: 63% | inhibition at 100 µM ([1]; SW480, read-out: maximum inhibition of cancer cell growth): ≤ 60%

Cyp1A1 activity in liver compared to oral UroA/UAS03 (Cyp1A1 [2]): more Cyp1A1 activity in liver
Compound: O=c1cc(-c2ccccc2)oc2ccc3ccccc3c12 [BNF, beta-naphthoflavone, reference compound]

Cyp1A1 activity in liver compared to oral UroA/UAS03 (Cyp1A1 [2]): more Cyp1A1 activity in liver | Cyp1A1 activity increase in colons (Cyp1A1 [2]; [6]): ~5 fold | Cyp1A1 enzyme activity induction in liver (Cyp1A1 [2]; [6]): ~30 fold
Compound: O=Cc1c2c(cc3c1=Nc1ccccc1-3)=Nc1ccccc1-2 [FICZ, 6-Formylindolo[3,2-b]carbazole, reference compound]
Cyp1A1 enzyme activity in colon epithelial cells (Cyp1A1 [3]): increased Cyp1A1 activity even at nano molar concentrations

Compound: O=C1C(=O)c2cc(O)ccc2-c2ccc(O)cc21 [PKL4]
anti-inflammatory activities (LPS-induced IL-6 and TNF-α), analogue screening [4]: effective anti-inflammatory compounds

Compound: COc1ccc2c(c1)C(=O)C(=O)c1cc(OC)ccc1-2 [PKL 3]
anti-inflammatory activities (LPS-induced IL-6 and TNF-α), analogue screening [4]: effective anti-inflammatory compounds

Compound: O=C1/C(=N/C23CC4CC(CC(C4)C2)C3)c2cc(O)ccc2-c2ccc(O)cc21 [PKL 17]
anti-inflammatory activities (LPS-induced IL-6 and TNF-α), analogue screening [4]: effective anti-inflammatory compounds

Compound: Clc1cc2c(cc1Cl)Oc1cc(Cl)c(Cl)cc1O2 [TCDD, 2,3,7,8-tetrachlorodibenzo-p-dioxin, reference compound]
Cyp1A1 enzyme activity in colon epithelial cells (Cyp1A1 [3]): increased Cyp1A1 activity even at nano molar concentrations

induction of luciferase activity (AhR activation) (AhR): ~15 fold
Compound: MeBio
